Test results reported in patent US20260232666A1, “COMPOSITIONS AND METHODS FOR INHIBITION OF RAS” (TheRas, Inc., priority 2023, published 2026).

Tests used:
[1] = biological target: T1, GppNHp-loaded KRAS4b (amino acids 1-169) G12C/C118S protein (Homo sapiens, UniProt P01116, C118S/G12C); assay: Covalent cysteine 12 modification by MALDI-TOF MS, GppNHp-loaded KRAS G12C; type: binding; details: 15 minutes reaction time point
T1 construct: KRAS4b (amino acids 1-169) G12C/C118S protein; made in house
Protocol: (§1) Biological Example 1: Covalent Cysteine 12 Modification Analysis Using Matrix Assisted Laser Desorption Ionization-Time of Flight Mass Spectrometry (MALDI-TOF MS)
(§2) MALDI-TOF MS analysis was performed using 1 μM protein (KRAS G12C), and 1:2.5 protein to compound ratio.
(§3) Reaction: 1 μM of GppNHp, GTP, or GDP-loaded KRAS4b (amino acids 1-169) G12C/C118S protein (produced in-house by Protein Expression Laboratory, FNLCR/Leidos Biomed) in 20 mM 4-(2-hydroxyethyl)-1-piperazineethanesulfonic acid (HEPES) buffer containing 150 mM NaCl, 1 mM MgCl2, pH 7.3 was prepared freshly before assay. Twelve-μL aliquots of protein were dispensed onto low volume 384-well plate, then 30 nL of tested compounds from 1 mM DMSO stocks were added to appropriate wells using ECHO 555 acoustic liquid handler (Labcyte Inc.). For each reaction/assay, three blanks were prepared by mixing 12 μL of protein solution with 30 nL DMSO. The contents of the wells were carefully mixed by aspiration, and then each plate was sealed with an adhesive cover, centrifuged at 2000 g for 1 minute, and kept in the dark at room temperature until 5 min, 15 min, 30 min, 2 h, or 6 h collections.
(§4) Target pretreatment: Before each assay MALDI target (Bruker MPT 384 ground steel BC) was pre-treated by pipetting on each spot 0.75 μL of saturated sinapinic acid in acetonitrile (ACN).
(§5) Sample preparation: At collection time point, 2 μL of reaction mixtures were pipetted out into 15 μL MALDI matrix solution (saturated solution of sinapinic acid in 1:1 ACN:water solution containing 0.75% trifluoroacetic acid (TFA)) deposited on 384 well polypropylene plate. Resulting solution was mixed by aspiration, centrifuged at 2000 g for 1 minute, then 1.5 μL aliquots were dispensed on pre-treated MALDI target using Beckman Coulter Biomek FXP 96/384-Span-8 Laboratory Automation Workstation. Finally, the MALDI target was dried under mild vacuum to produce spots with fine crystalline structure.
(§6) Measurements: MALDI-TOF measurements were performed on a Bruker Daltonics rapiflex Tissuetyper TOF-TOF mass spectrometer using linear mode and mass range from 18.6 to 21.6 kDa. Detector gain was set to 3.3×(483 V), sample rate to 5 GS/s, real time smoothing to medium (175 MHz), laser smart beam pattern was set to: “MS Thin Layer M5”, and the laser frequency was 10000 Hz. Spectra were automatically collected using custom AutoXecute method. Laser power was auto adjusted using fuzzy control. The peak selection range was set to be between 19000 and 21500 Da. Peak evaluation uses half width parameter set to be smaller than 40 Da for processed spectrograms (centroid peak detection; smoothed by SavitzkyGolay algorithm using 7 m/z width and 2 cycles; baseline was subtracted using median algorithm with flatness 1 and median level 0.01). Fuzzy control used Proteins/Oligonucleotides protocol with minimum half width 1/10 times above threshold. Up to 40000 satisfactory shots were collected in 10000 shot steps. Dynamic termination was implemented to finish data collection when peak signal/noise ratio was reaching value of 50.
(§7) Spectra processing: Spectra were smoothed by SavitzkyGolay algorithm using 7 m/z width and three cycles. Centroid peak detection algorithm was used with signal to noise threshold set to 6, relative intensity threshold 4%, peak width 10 m/z and median baseline subtraction using flatness of 1 and median level of 0.01. Peak intensity and area under the peak were evaluated and recorded for all peaks between 19,300 Da and 21,550 Da.
(§8) Calculation of percent modification: Percent modification was calculated as a ratio of peak height for protein modified by compound to sum of peak height of remaining protein plus peak height for protein modified by compound. If multiple modifications were observed each was calculated as a ratio of peak height for given modification versus sum of peak heights for all observed protein species. Data reported in Table 4 are from 15 minutes reaction time point. […]

[2] = biological target: T2, GTP-loaded KRAS4b (amino acids 1-169) G12C/C118S protein (Homo sapiens, UniProt P01116, C118S/G12C); assay: Covalent cysteine 12 modification by MALDI-TOF MS, GTP-loaded KRAS G12C; type: binding; details: 15 minutes reaction time point
T2 construct: KRAS4b (amino acids 1-169) G12C/C118S protein; made in house
Protocol: as §1, §2, §3, §4, §5, §6, §7, §8

[3] = biological target: T3, GDP-loaded KRAS4b (amino acids 1-169) G12C/C118S protein (Homo sapiens, UniProt P01116, C118S/G12C); assay: Covalent cysteine 12 modification by MALDI-TOF MS, GDP-loaded KRAS G12C; type: binding; details: 15 minutes reaction time point
T3 construct: KRAS4b (amino acids 1-169) G12C/C118S protein; made in house
Protocol: as §1, §2, §3, §4, §5, §6, §7, §8

pERK in NCI-H358 cells = assay: Cell-based pERK HTRF assay (pERK inhibition in H358 cells); details: Homo sapiens, NCI-H358, 0.5 h, 30 min incubation
Protocol: Biological Example 3: Cell-Based pERK HTRF Assay
pERK assays (Perkin Elmer) were used to determine the effectiveness of compounds of the present disclosure in disrupting KRAS G12C protein/effector signaling in cells.
On Day 1, cells (NCI-H358) were seeded into 96-well plates at 4×10^4 cells/well in complete growth media (RPMI, 10% FBS).
On Day 2, cells were treated with compounds at 0.25% DMSO. The source plate was created with compounds diluted in media at 5-fold the final assay concentration. The compounds were run in a 9-point concentration curve starting at 75 μM, with a 3-fold dilution between concentrations. 20 μL was transferred onto the cell plates (final volume in wells was 100 μL). Plates were harvested after 30 min incubation by aspirating media and adding kit-supplied 1× supplemented lysis buffer to all wells (75 μl per well). Plates were then placed on a plate shaker and incubated at 850 rpm for an additional 30 min.
Antibody mixture solution was prepared by diluting aliquoted d2 and Eu Cryptate antibodies 1:20 in kit supplied detection buffer, then mixed the diluted antibodies solutions (1:1 v:v). 4 μL of this solution was then added to a 384-well detection plate (Perkin Elmer; 6008230).
Samples were homogenized by pipetting up and down and then transferred (16 μL of cell lysates) from the 96-well cell culture plate to two wells of the HTRF 384-well detection plate containing the antibody solution. Plates were centrifuged (524 g for […]) and allowed to incubate between 4 and 24 h at room temperature. Maximum signal is reached after 4 h incubation time and remains stable over a period of 24 hours. Therefore, readings can be made between 4 and 24 h of incubation. Plates were centrifuged again (524 g for 1 min), and analyzed on the En Vision plate reader using the following settings: Excitation 320 nm, Bandwidth 75 nm; Emission 615 nm, Bandwidth 85 nm; Gain 100%; Flashes 100; Lag 60 μs.
The percent of modification of GppNHp, GTP, or GDP loaded KRAS G12C by MALDI-TOF MS, biochemical Raf1 RBD-KRAS G12C-GppNHp disruption assay IC50, and pERK inhibition IC50 of selected compounds described herein are shown in Table 4. For percent of modification at 15 minutes (MALDI-TOF MS) of GppNHp, GTP, or GDP loaded KRAS G12C: A: percent of modification ≥70%; B: 50≤percent of modification <70%; C: 10%≤percent of modification <50%; D: percent of modification <10%. […] For pERK inhibition in H358 cell assay: A: IC50≤0.1 μM; B: 0.1 μM<IC50≤1 μM; C: IC50>1 μM. Blanks in the table represent that compound was not tested in the indicated assay.

GppNHp-KRAS G12C percent of modification [1] | GTP-KRAS G12C percent of modification [2] | GDP-KRAS G12C percent of modification [3] | IC50 (pERK in NCI-H358 cells) [nM] | SMILES
B (50≤percent of modification <70%) | B (50≤percent of modification <70%) | B (50≤percent of modification <70%) | < 100 | COC1CC(COc2nc(N(C)C3CCN(C(=O)/C=C/c4nc(C(C)(F)F)no4)C3C)c3cc(Cl)c(-c4ccc(F)c5sc(N)c(C#N)c45)c(F)c3n2)N(C)C1 (centres unmarked) [Compound 190]
B (50≤percent of modification <70%) | B (50≤percent of modification <70%) | B (50≤percent of modification <70%) | 100 to 1000 | C[C@@H]1CN(c2nc(OC[C@@]34CCCN3C[C@H](F)C4)nc3c(F)c(-c4ccc(F)c5sc(N)c(C#N)c45)c(Cl)cc23)[C@@H](C)CN1C(=O)/C=C/c1nc(C(C)(F)F)no1 [Compound 191]
A (percent of modification ≥70%) | A (percent of modification ≥70%) | A (percent of modification ≥70%) | < 100 | C=CC(=O)N1CC[C@@H](N(C)c2nc(O[C@@H](C)[C@@H]3[C@@H](OC)CCN3C)nc3c(F)c(-c4ccc(F)c5sc(N)c(C#N)c45)c(C(F)(F)F)cc23)[C@H]1C [Compound 193]
A (percent of modification ≥70%) | A (percent of modification ≥70%) | A (percent of modification ≥70%) | < 100 | C=CC(=O)N1CC[C@@H](N(C)c2nc(O[C@@H](C)[C@@H]3C[C@@H](OC)CN3C)nc3c(F)c(-c4ccc(F)c5sc(N)c(C#N)c45)c(Cl)cc23)[C@H]1C [Compound 194]
A (percent of modification ≥70%) | A (percent of modification ≥70%) | A (percent of modification ≥70%) | < 100 | C=CC(=O)N1CC[C@@H](N(C)c2nc(O[C@@H](C)[C@@H]3[C@@H](OC)CCN3C)nc3c(F)c(-c4ccc(F)c5sc(N)c(C#N)c45)c(Cl)cc23)[C@H]1C [Compound 195]
A (percent of modification ≥70%) | A (percent of modification ≥70%) | A (percent of modification ≥70%) | < 100 | C=CC(=O)N1CC[C@@H](N(C)c2nc(OC[C@@H]3[C@@H](OC)CCN3C)nc3c(F)c(-c4ccc(F)c5sc(N)c(C#N)c45)c(Cl)cc23)[C@H]1C [Compound 196]
A (percent of modification ≥70%) | A (percent of modification ≥70%) | A (percent of modification ≥70%) | < 100 | C=CC(=O)N1CC[C@@H](N(C)c2nc(OC[C@@H]3[C@@H](OC)CCN3C)nc3c(F)c(-c4ccc(F)c5sc(N)c(C#N)c45)c(C(F)(F)F)cc23)[C@H]1C [Compound 197]
B (50≤percent of modification <70%) | B (50≤percent of modification <70%) | B (50≤percent of modification <70%) | < 100 | C=CC(=O)N1CC[C@@H](N(C)c2nc(OC[C@@H]3C(=C(F)F)CCN3C)nc3c(F)c(-c4ccc(F)c5sc(N)c(C#N)c45)c(Cl)cc23)[C@H]1C [Compound 198]
C (10%≤percent of modification <50%) | C (10%≤percent of modification <50%) | C (10%≤percent of modification <50%) | < 100 | C=CC(=O)N1CC[C@@H](N(C)c2nc(OC[C@@H]3C(=C(F)F)CCN3C)nc3c(F)c(-c4ccc(F)c5sc(N)c(C#N)c45)c(C(F)(F)F)cc23)[C@H]1C [Compound 199]
A (percent of modification ≥70%) | B (50≤percent of modification <70%) | C (10%≤percent of modification <50%) | < 100 | C=CC(=O)N1CC[C@@H](N(C)c2nc(O[C@@H](C)[C@@H]3C(=C)CCN3C)nc3c(F)c(-c4ccc(F)c5sc(N)c(C#N)c45)c(Cl)cc23)[C@H]1C [Compound 200]
B (50≤percent of modification <70%) | C (10%≤percent of modification <50%) | B (50≤percent of modification <70%) | 100 to 1000 | C=CC(=O)N1CC[C@@H](N(C)c2nc(O[C@@H](C)[C@@H]3C(=C(F)F)CCN3C)nc3c(F)c(-c4ccc(F)c5sc(N)c(C#N)c45)c(Cl)cc23)[C@H]1C [Compound 201]
